Experimental data published in US20210198201A1, “Orally Active Melanocortin Receptor-4 Compounds” (Palatin Technologies, Inc., priority 2018, published 2021).
Marks after values point to notes of the source that are not given here.

How the values were obtained:
[1] = molecular target: T1, MC4r (Homo sapiens, UniProt P32245); experiment: cAMP functional study in human MC4r expression system approximating maximal physiologic receptor densities; type: cell-based; design: host or cells: TREx-293; conditions: low receptor density human MC4r system; for Emax: read-out: relative efficacy, compared to NDP-α-MSH
Protocol: Assay for Agonist Activity. Accumulation of intracellular cAMP was examined as a measure of the ability of the peptides of the present invention to elicit a functional response in HEK-293 cells that express MC4-R. Confluent HEK-293 cells that express recombinant hMC4-R were detached from culture plates by incubation in enzyme-free cell dissociation buffer. Dispersed cells were suspended in Hanks' Balanced Salt Solution containing 10 mM HEPES (pH 7.5), 1 mM MgCl2, 1 mM glutamine, 0.5% albumin and 0.3 mM 3-isobutyl-1-methyl-xanthine (IBMX), a phosphodiesterase inhibitor. The cells were plated in 96-well plates at a density of 0.5×10^5 cells per well and pre-incubated for 10 minutes. Cells were exposed for 15 minutes at 37° C. to peptides of the present invention dissolved in DMSO (final DMSO concentration of 1%) at a concentration range of 0.05-5000 nM in a total assay volume of 200 μL. NDP-α-MSH was used as the reference agonist. cAMP levels were determined by an HTRF® cAMP cell-based assay system from Cisbio Bioassays utilizing cryptate-labeled anti-cAMP and d2-labeled cAMP, with plates read on a Perkin-Elmer Victor plate reader at […]. Data analysis was performed by nonlinear regression analysis with Graph-Pad Prism® software. The maximum efficacies of the test peptides of the present invention were compared to that achieved by the reference melanocortin agonist NDP-αMSH.
Low Receptor Density Systems. In functional studies preferably a human MC4r expression system approximating maximal human physiologic receptor densities is employed. In one aspect, a tetracycline-regulated mammalian expression system that uses regulatory elements from the E. coli Tn10-encoded tetracycline (Tet) resistance operon was employed (T-REx™ System, Invitrogen). By use of the T-REx™ System, expression of the gene of interest, the human MC4-R gene, was repressed in the absence of tetracycline or doxycycline and induced in the presence of tetracycline or doxycycline, with receptor density being dependent on the concentration of tetracycline or doxycycline. See generally Yao F. et al: Tetracycline repressor, tetR, rather than the tetR-mammalian cell transcription factor fusion derivatives, regulates inducible gene expression in mammalian cells. Hum. Gene Ther. 9:1939-1950 (1998), incorporated here by reference. Regulation was based on the binding of tetracycline or doxycycline, a derivative of tetracycline, to the Tet repressor and derepression of the promoter controlling expression of the human MC4-R gene. In general tetracycline or related regulators, such as tetracycline-derivatives, may be used to induce the gene expression. An inducible expression plasmid for expression of human MC4-R gene under the control of the strong human cytomegalovirus immediate-early (CMV) promoter and two tetracycline operator 2 (TetO2) sites was employed, together with a regulatory plasmid, pcDNA6/TR, which encodes the Tet repressor (TetR) under the control of the human SV40 promoter. Thus, expression of the human MC4-R gene from the inducible expression vector was controlled by the strong CMV promoter into which 2 copies of the tet operator 2 (TetO2) sequence had been inserted in tandem. The TetO2 sequences consisted of 2 copies of 19-nucleotide sequence separated by a 2 base pair spacer. Each 19 nucleotide TetO2 sequence served as the binding site for 2 molecules of the Tet repressor. The expression vector pcDNA4/TO/MC4R was introduced into TREx-293 (Invitrogen, R710-07), a cell line stably expressing the tetracycline repressor pcDNA6/TR using lipofectamin 2000 reagent (Invitrogen, 11668-019). Alternatively, both the expression vector and repressor are introduced into host cells by standard transformation or transfection methods.

[2] = molecular target: T1, MC4r; experiment: Competitive inhibition binding assay, MC4r; design: expressed in transfected cells; host or cells: HEK-293 (membrane homogenates); conditions: binding studies
Protocol: (§1) A competitive inhibition binding assay is performed using membrane homogenates prepared from HEK-293 cells that express recombinant hMC1ra, hMC4r, hMC3r, or hMC5r, and from B16-F10 mouse melanoma cells (containing endogenous MC1r). In the examples that follow, all values are for human recombinant receptors unless otherwise noted. Assays are performed in 96 well GF/B Millipore multiscreen filtration plates (MAFB NOB10) pre-coated with 0.5% bovine serum albumin (Fraction V). […] After incubation for 60 to 90 minutes at 37° C., the assay mixture is filtered and the membranes washed three times with ice-cold buffer. Filters are dried and counted in a gamma counter for bound radioactivity.
(§2) Maximal specific binding (100%) is defined as the difference in radioactivity (cpm) bound to cell membranes in the absence and presence of 1 μM NDP-α-MSH. […] Each assay is conducted in duplicate or triplicate and the actual mean values are described, with results less than 0% reported as 0%. Ki values for test compounds are determined using Graph-Pad Prism® curve-fitting software.
Competitive Binding Assay Using Eu-NDP-α-MSH. Alternatively, a competitive inhibition binding assay is performed employing Eu-NDP-α-MSH (PerkinElmer Life Sciences catalog No. AD0225) with determination by time-resolved fluorometry (TRF) of the lanthanide chelate. […] After incubation for 90 minutes at 37° C., the reaction was stopped by filtration over Acro Well 96-well filter plates (Pall Life Sciences). The filter plates were washed 4 times with 200 μL of ice-cold phosphate-buffered saline. DELFIA Enhancement solution (PerkinElmer Life Sciences) was added to each well. The plates were incubated on a shaker for 15 minutes and read at 340 nm excitation and 615 nm emission wavelengths. Each assay was conducted in duplicate and mean values were utilized. Ki values were determined by curve-fitting with Graph-Pad Prism® software using a one-site fixed-slope competition binding model.

[3] = molecular target: T2, MC1r (Homo sapiens, UniProt Q01726); experiment: Competitive inhibition binding assay, MC1r; conditions: binding studies
T2 construct: expressed in transfected cells; host or cells: HEK-293 (membrane homogenates)
Protocol: as §1, §2

[4] = tested on: C57BL/6 male DIO mice; experiment: Body weight and food intake in vivo study in diet induced obese mice; design: species or system mouse; conditions: for Body Weight Change (%) Mean / Food Intake - 24 Hours (g) Mean: 1 mg/kg subcutaneous twice daily
Protocol: Compound 7.1 was assessed in a body weight and food intake in vivo study in diet induced obese […] mice. C57BL/6 male DIO mice were utilized, that were 17 weeks of age on arrival. Animals were pre-conditioned on a high-fat diet for 11 weeks by Jackson Labs. […] Animals were single housed within a limited access rodent facility, and provided ad libitum with a commercial rodent diet and free access to drinking water. Animals were randomized into five groups, a vehicle group, three dose levels of compound 7.1 (3 mg/kg, 10 mg/kg and 30 mg/kg), and Peptide A, a positive control cyclic peptide of the formula Ac-Arg-cyclo(Orn-Asn-D-Phe-Arg-Trp-Glu)-NH2. Following three days of sham dosing, animals were dosed for three days, with vehicle or Compound 7.1 dosed orally once daily at within one hour of lights out in the AM, and Peptide A dosed by subcutaneous injection twice daily within one hour before lights out and six hours after lights out. Body weights were measured one hour prior to lights out, and feed weights were measured both one hour prior to lights out and six hours post lights out.
*p<0.05 vs. sham (vehicle control) using two-way ANOVA followed by Dunnett's post-test.
**p<0.01 vs sham (vehicle control) using two-way ANOVA followed by Dunnett's post-test.

T1 sequence (P32245 whole entry): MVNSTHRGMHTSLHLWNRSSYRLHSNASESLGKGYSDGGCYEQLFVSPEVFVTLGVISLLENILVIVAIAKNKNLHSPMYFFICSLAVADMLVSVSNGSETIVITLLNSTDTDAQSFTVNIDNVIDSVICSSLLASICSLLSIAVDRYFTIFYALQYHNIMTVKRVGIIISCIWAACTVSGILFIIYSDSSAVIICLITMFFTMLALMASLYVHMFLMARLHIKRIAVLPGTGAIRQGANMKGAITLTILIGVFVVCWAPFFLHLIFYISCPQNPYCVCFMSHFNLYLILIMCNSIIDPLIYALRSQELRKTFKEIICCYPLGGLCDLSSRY
T2 sequence (Q01726 whole entry): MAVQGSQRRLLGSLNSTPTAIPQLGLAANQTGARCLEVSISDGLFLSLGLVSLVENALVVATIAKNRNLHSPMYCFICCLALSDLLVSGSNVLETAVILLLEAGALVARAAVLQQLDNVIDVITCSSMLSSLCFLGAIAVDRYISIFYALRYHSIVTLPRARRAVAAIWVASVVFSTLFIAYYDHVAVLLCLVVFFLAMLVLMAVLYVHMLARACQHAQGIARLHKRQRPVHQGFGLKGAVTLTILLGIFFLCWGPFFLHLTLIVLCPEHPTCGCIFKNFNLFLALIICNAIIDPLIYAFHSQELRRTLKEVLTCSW

Molecule	EC50 [1]	Emax [1]	Ki [2]	other results
CC(=O)N1CCC(N(CC(C)C)N2CCN(C(=O)[C@@H](Cc3ccc(Cl)cc3)NC(=O)C3(N)CC3)CC2)CC1 [Compound 7.2, N-[(1R)-2-[4-[(1-acetyl-4-piperidyl)-isobutyl-amino]piperazin-1-yl]-1-[(4-chlorophenyl)methyl]-2-oxo-ethyl]-1-amino-cyclopropanecarboxamide]		3%	5 nM	Ki [3]: 40 nM
Ac-Arg-cyclo(Orn-Asn-D-Phe-Arg-Trp-Glu)-NH2 [Peptide A]				Body Weight Change (%) Mean ([4]; Day 0): 0%; Food Intake - 24 Hours (g) Mean ([4]; Day 0, 24 hours post lights out): 0.99** g; Body Weight Change (%) Mean ([4]; Day 1): −5.69** %; Food Intake - 24 Hours (g) Mean ([4]; Day 1, 24 hours post lights out): 1.10** g; Body Weight Change (%) Mean ([4]; Day 2): −8.37** %; Food Intake - 24 Hours (g) Mean ([4]; Day 2, 24 hours post lights out): 1.67** g; Body Weight Change (%) Mean ([4]; Day 3): −8.78** %; effect on feed intake at 24 hours post lights out (in words) ([4]; 1 mg/kg, entirety of the study, compared with sham animals): significantly inhibited feed intake; effect on body weight (in words) ([4]; two times daily 1 mg/kg, throughout the study): decreased animal body weights
CC(=O)N1CCC(N(CC(C)C)N2CCN(C(=O)[C@@H](Cc3ccc(Cl)cc3)NC(=O)C3(N)CCCC3)CC2)CC1 [Compound 7.4, N-[(1R)-2-[4-[(1-acetyl-4-piperidyl)-isobutyl-amino]piperazin-1-yl]-1-[(4-chlorophenyl)methyl]-2-oxo-ethyl]-1-amino-cyclopentanecarboxamide]		10%	4 nM	
CC(=O)N1CCC(N(CC(C)C)N2CCN(C(=O)[C@@H](Cc3ccc(Cl)cc3)NC(=O)C3(N)CCCCC3)CC2)CC1 [Compound 7.5, N-[(1R)-2-[4-[(1-acetyl-4-piperidyl)-isobutyl-amino]piperazin-1-yl]-1-[(4-chlorophenyl)methyl]-2-oxo-ethyl]-1-amino-cyclohexanecarboxamide]	9 nM	15%	4 nM	
CC(=O)N1CCC(N(CC(C)C)N2CCN(C(=O)[C@@H](Cc3ccc(Cl)cc3)NC(=O)C3(N)CCC3)CC2)CC1 [Compound 7.3, N-[(1R)-2-[4-[(1-acetyl-4-piperidyl)-isobutyl-amino]piperazin-1-yl]-1-[(4-chlorophenyl)methyl]-2-oxo-ethyl]-1-amino-cyclobutanecarboxamide]		10%	3 nM	
CNC(C)(C)C(=O)N[C@H](Cc1ccc(Cl)cc1)C(=O)N1CCN(N(CC(C)C)C2CCN(C(C)=O)CC2)CC1 [Compound 7.9, N-[(1R)-2-[4-[(1-acetyl-4-piperidyl)-isobutyl-amino]piperazin-1-yl]-1-[(4-chlorophenyl)methyl]-2-oxo-ethyl]-2-methyl-2-(methylamino)propanamide]				relative efficacy, compared to NDP-α-MSH [1]: 19%

Second part, led by results:

EC50 [1]	Emax [1]	Ki [2]	Molecule	other results
6 nM	13%	6 nM	CC(=O)N1CCC(N(CC(C)C)N2CCN(C(=O)[C@@H](Cc3ccc(Cl)cc3)NC(=O)C3(C)CCCN3)CC2)CC1 (stereo partly drawn) [Compound 7.11, N-[(1R)-2-[4-[(1-acetyl-4-piperidyl)-isobutyl-amino]piperazin-1-yl]-1-[(4-chlorophenyl)methyl]-2-oxo-ethyl]-2-methyl-pyrrolidine-2-carboxamide]	
9 nM	22%	5 nM	CC(C)CN(C1CCN(C(=O)CO)CC1)N1CCN(C(=O)[C@@H](Cc2ccc(Cl)cc2)NC(=O)C(C)(C)N)CC1 [Compound 7.10, 2-amino-N-[(1R)-1-[(4-chlorophenyl)methyl]-2-[4-[[1-(2-hydroxyacetyl)-4-piperidyl]-isobutyl-amino]piperazin-1-yl]-2-oxo-ethyl]-2-methyl-propanamide]	
52 nM	28%	6 nM	CCNC(=O)N1CCC(N(CC(C)C)N2CCN(C(=O)[C@@H](Cc3ccc(Cl)cc3)NC(=O)C(C)(C)N)CC2)CC1 [Compound 7.8, 4-[[4-[(2R)-2-[(2-amino-2-methyl-propanoyl)amino]-3-(4-chlorophenyl)propanoyl]piperazin-1-yl]-isobutyl-amino]-N-ethyl-piperidine-1-carboxamide]	Ki [3]: 150 nM
	8%	3 nM	CC(=O)N1CCC(N(CC(C)C)N2CCN(C(=O)[C@@H](Cc3ccc(Cl)cc3)NC(=O)C3(N)CCCCCC3)CC2)CC1 [Compound 7.7, N-[(1R)-2-[4-[(1-acetyl-4-piperidyl)-isobutyl-amino]piperazin-1-yl]-1-[(4-chlorophenyl)methyl]-2-oxo-ethyl]-1-amino-cycloheptanecarboxamide]	
25 nM	34%	13 nM	CCC(N)(CC)C(=O)N[C@H](Cc1ccc(Cl)cc1)C(=O)N1CCN(N(CC(C)C)C2CCN(C(C)=O)CC2)CC1 [Compound 7.6, N-[(1R)-2-[4-[(1-acetyl-4-piperidyl)-isobutyl-amino]piperazin-1-yl]-1-[(4-chlorophenyl)methyl]-2-oxo-ethyl]-2-amino-2-ethyl-butanamide]	
